From the NIST ThermoML archive (doi:10.1016/j.jct.2012.07.007) come the findings set out here.

Numbers after ± are expanded uncertainties.

The conditions of this data set: 101.33 kPa, Liquid; for speed of sound: Linear variable-path acoustic interferometer; for mass density: Vibrating tube method.

The term speed of sound denotes the propagation velocity of pressure waves in the medium. What is called mass density is the mass of a sample divided by its volume.

As to `Cc1ccncc1` [4-methylpyridine], the speed of sound (293.15 K) is recorded as 1451.1 ± 1.8 m/s, the speed of sound (298.15 K) was found to be 1431.5 ± 1.8 m/s, the speed of sound (303.15 K) was determined as 1410.7 ± 1.8 m/s and the speed of sound (308.15 K) is reported as 1389.9 ± 1.8 m/s. Also, the mass density is reported as 955.099 ± 0.23 kg/m3 (293.15 K), 950.179 ± 0.23 kg/m3 (298.15 K), 945.413 ± 0.23 kg/m3 (303.15 K) and 940.821 ± 0.23 kg/m3 (308.15 K).

Consider `Cc1cccnc1` [3-methylpyridine], for which the speed of sound is listed as 1445.9 ± 1.8 m/s (293.15 K), 1424 ± 1.8 m/s (298.15 K), 1404 ± 1.8 m/s (303.15 K) and 1384 ± 1.8 m/s (308.15 K). Moreover, the mass density runs as follows: (293.15 K) 956.581 ± 0.23 kg/m3; (298.15 K) 952.002 ± 0.23 kg/m3; (303.15 K) 947.449 ± 0.23 kg/m3; (308.15 K) 942.831 ± 0.23 kg/m3.

Take `Cc1ccccn1` [2-methylpyridine]: the speed of sound runs as follows: (293.15 K) 1400.5 ± 2.5 m/s; (298.15 K) 1380.1 ± 2.5 m/s; (303.15 K) 1361 ± 2.5 m/s; (308.15 K) 1339.9 ± 2.5 m/s. The mass density (293.15 K) is listed as 944.401 ± 0.77 kg/m3, the mass density (298.15 K) was found to be 939.802 ± 0.77 kg/m3, the mass density (303.15 K) was 935.117 ± 0.76 kg/m3 and the mass density (308.15 K) came to 930.414 ± 0.76 kg/m3.

Take `c1ccncc1` [pyridine]: the speed of sound by setting is: (293.15 K) 1442 ± 1.8 m/s; (298.15 K) 1417.8 ± 1.8 m/s; (303.15 K) 1398 ± 1.8 m/s; (308.15 K) 1377.1 ± 1.8 m/s. The mass density reads like this: (293.15 K) 983.191 ± 0.23 kg/m3; (298.15 K) 978.249 ± 0.23 kg/m3; (303.15 K) 973.224 ± 0.23 kg/m3; (308.15 K) 968.166 ± 0.23 kg/m3.

Turning to `CCn1cc[n+](C)c1.F[B-](F)(F)F` [1-ethyl-3-methylimidazolium tetrafluoroborate], the speed of sound is recorded as 1631 ± 2.6 m/s (293.15 K), 1619.4 ± 2.6 m/s (298.15 K), 1607.6 ± 2.6 m/s (303.15 K) and 1596.3 ± 2.6 m/s (308.15 K). Also, the mass density (293.15 K) came out at 1283.89 ± 1.5 kg/m3, the mass density (298.15 K) is listed as 1279.91 ± 1.5 kg/m3, the mass density (303.15 K) came out at 1276.26 ± 1.5 kg/m3 and the mass density (308.15 K) is recorded as 1272.07 ± 1.4 kg/m3.
